From patent publication US12091399B2, “Phenyltetrazole derivatives as plasma kallikrein inhibitors” (Boehringer Ingelheim International GmbH, priority 2018, dated 2024)

Biological target: Human PKK (Homo sapiens (Human), UniProt P03952)
Test: Inhibition of PKK using an endpoint assay (human PKK)
Assay type: biochemical
Settings: 1 h at rt, 0.10 μM H-Pro-Phe-Arg-AMC
Method: The ability of compounds of formula (I) to inhibit plasma kallikrein (PKK), Factor XIIa (FXIIa), Factor XIa (FXIa), Factor Xa (FXa), Factor IIa (alpha-thrombin; FIIa), plasmin, trypsin, tissue kallikrein 1 (TK1), Factor Vila (FVIIa), or FVIIa complexed with Tissue Factor, phospholipids and CaCl2) (FVIIa/TF/PL/CaCl2) was determined using the following biochemical assays in assay buffer (100 mM Tris, 150 mM NaCL, adjusted to a pH of 7.8 with HCl, and containing 0.1% (w/v) BSA and 0.05% (v/v) Tween20) in the presence of 1% (v/v) DMSO:
Subsequently, PPACK II (Calbiochem) was added as a stop solution to achieve a final concentration of 1 μM and fluorescence was measured using an Envision Reader (PerkinElmer) with the wavelength excitation setting of 355 nm and the wavelength emission setting of 460 nm. The number of the compound corresponds to the number of the Example in the experimental section.

Human PKK, sequence (P03952 391-638): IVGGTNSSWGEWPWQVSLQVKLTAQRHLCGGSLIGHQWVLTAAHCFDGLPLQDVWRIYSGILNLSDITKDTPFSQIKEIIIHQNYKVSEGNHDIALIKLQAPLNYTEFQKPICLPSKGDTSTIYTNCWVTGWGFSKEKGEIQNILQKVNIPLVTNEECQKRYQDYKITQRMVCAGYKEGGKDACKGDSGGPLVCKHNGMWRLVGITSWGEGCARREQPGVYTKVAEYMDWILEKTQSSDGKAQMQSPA
Human PKK, sequence (P03952 20-390 partner): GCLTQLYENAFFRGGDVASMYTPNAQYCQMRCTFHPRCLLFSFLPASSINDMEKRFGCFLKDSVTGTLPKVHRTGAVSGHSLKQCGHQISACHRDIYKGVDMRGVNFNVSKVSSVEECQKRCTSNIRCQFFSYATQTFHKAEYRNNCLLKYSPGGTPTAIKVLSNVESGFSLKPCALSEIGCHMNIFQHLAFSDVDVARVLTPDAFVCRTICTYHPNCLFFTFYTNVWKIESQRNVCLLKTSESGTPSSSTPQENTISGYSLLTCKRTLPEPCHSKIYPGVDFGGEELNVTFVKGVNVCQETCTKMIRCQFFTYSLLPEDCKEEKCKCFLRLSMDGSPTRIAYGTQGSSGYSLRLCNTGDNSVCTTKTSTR

Compound | IC50 [nM]
Cc1cc(Cl)cc(CNC(=O)c2cnn(Cc3ccc(N4CC5CC5C4)nc3C)c2)c1-n1cnnn1 (stereo not shown) [Example 4] | 82
Cc1nc(N2CC3CC3C2)ccc1Cn1cc(C(=O)NCc2c(-n3cnnn3)ccc(Cl)c2F)c(Cl)n1 (stereo not shown) [Example 7] | 0.8
Cc1nc(N2CC3C(C2)C3(F)F)ccc1Cn1cc(C(=O)NCc2cc(Cl)ccc2-n2cnnn2)c2cncnc21 (stereo not shown) [Example 8] | 1
Cc1nc(N2CC3CC3C2)ccc1Cn1cc(C(=O)NCc2c(-n3cnnn3)ccc(Cl)c2F)c(C(F)F)n1 (stereo not shown) [Example 10] | 0.5
COCc1nn(Cc2ccc(N3CC4C(C3)C4(F)F)nc2C)cc1C(=O)NCc1c(-n2cnnn2)ccc(Cl)c1F (stereo not shown) [Example 11] | 0.6
COCc1nn(Cc2ccc(N3CC4C(C3)C4(F)F)nc2C)cc1C(=O)NCc1cc(Cl)ccc1-n1cnnn1 (stereo not shown) [Example 12] | 0.9
COCc1nn(Cc2ccc(N3CC4CC4C3)nc2C)cc1C(=O)NCc1c(-n2cnnn2)ccc(Cl)c1F (stereo not shown) [Example 14] | 0.6
Cc1nc(N2CC3CC3C2)ccc1Cn1cc(C(=O)NCc2c(-n3cnnn3)ccc(Cl)c2F)c2cncnc21 (stereo not shown) [Example 16] | 0.6
Cc1nc(N2CC3C(C2)C3(F)F)ccc1Cn1cc(C(=O)NCc2c(-n3cnnn3)ccc(Cl)c2F)c(C)n1 (stereo not shown) [Example 17] | 0.4
Cc1nc(N2CC3C(C2)C3(F)F)ccc1Cn1cc(C(=O)NCc2cc(Cl)ccc2-n2cnnn2)c(C)n1 (stereo not shown) [Example 18] | 1
Cc1nc(N2CC3CC3C2)ccc1Cn1cc(C(=O)NCc2cc(Cl)ccc2-n2cnnn2)c(C)n1 (stereo not shown) [Example 19] | 0.7
Cc1nc(N2CC3CC3C2)ccc1Cn1cc(C(=O)NCc2c(-n3cnnn3)ccc(Cl)c2F)c(C)n1 (stereo not shown) [Example 20] | 0.4
COc1nn(Cc2ccc(N3CC4CC4C3)nc2C)cc1C(=O)NCc1c(-n2cnnn2)ccc(Cl)c1F (stereo not shown) [Example 22] | 1
Cc1nc(N2CC3C(C2)C3(F)F)ncc1Cn1cc(C(=O)NCc2c(-n3cnnn3)ccc(Cl)c2F)c2cncnc21 (stereo not shown) [Example 23] | 1
Cc1nc(N2CC3C(C2)C3(F)F)ncc1Cn1cc(C(=O)NCc2cc(Cl)ccc2-n2cnnn2)c2cncnc21 (stereo not shown) [Example 24] | 2
COCc1nn(Cc2ccc(N3CC4(CC4)C3)nc2C)cc1C(=O)NCc1cc(Cl)ccc1-n1cnnn1 [Example 25] | 1
Cc1nc(N2CC3CC3C2)ncc1Cn1cc(C(=O)NCc2c(-n3cnnn3)ccc(Cl)c2F)c2cncnc21 (stereo not shown) [Example 26] | 0.9
Cc1nc(N2CC3CC3C2)ncc1Cn1cc(C(=O)NCc2cc(Cl)ccc2-n2cnnn2)c2cncnc21 (stereo not shown) [Example 27] | 3
Cc1nc(N2CC3(CC3)C2)ccc1Cn1cc(C(=O)NCc2c(-n3cnnn3)ccc(Cl)c2F)c(C)n1 [Example 28] | 14
Cc1nc(N2CC3(CC3)C2)ccc1Cn1cc(C(=O)NCc2cc(Cl)ccc2-n2cnnn2)c(C)n1 [Example 29] | 2
Cc1nc(N2CC3CC3C2)ncc1Cn1cc(C(=O)NCc2c(-n3cnnn3)ccc(Cl)c2F)c(C)n1 (stereo not shown) [Example 30] | 0.8
Cc1nc(N2CC3CC3C2)ncc1Cn1cc(C(=O)NCc2cc(Cl)ccc2-n2cnnn2)c(C)n1 (stereo not shown) [Example 31] | 2
COCc1nn(Cc2cnc(N3CC4C(C3)C4(F)F)nc2C)cc1C(=O)NCc1c(-n2cnnn2)ccc(Cl)c1F (stereo not shown) [Example 32] | 1
Cc1nc(N2CC3C(C2)C3(F)F)ncc1Cn1cc(C(=O)NCc2c(-n3cnnn3)ccc(Cl)c2F)c(C)n1 (stereo not shown) [Example 33] | 0.8
Cc1nc(N2CC3C(C2)C3(F)F)ncc1Cn1cc(C(=O)NCc2cc(Cl)ccc2-n2cnnn2)c(C)n1 (stereo not shown) [Example 34] | 1
COCc1nn(Cc2cnc(N3CC4CC4C3)nc2C)cc1C(=O)NCc1c(-n2cnnn2)ccc(Cl)c1F (stereo not shown) [Example 35] | 1
COCc1nn(Cc2cnc(N3CC4CC4C3)nc2C)cc1C(=O)NCc1cc(Cl)ccc1-n1cnnn1 (stereo not shown) [Example 36] | 5
Cc1nc(N2CC3(CC3)C2)ncc1Cn1cc(C(=O)NCc2cc(Cl)ccc2-n2cnnn2)c(C)n1 [Example 37] | 2
